In ChEMBL document CHEMBL1201862, “PubChem BioAssay data set” (2004):
Blank lines part the entries; values can stand above or below the compound they belong to. The source made the active and inactive calls.

Legend:
H9c2 = assay: cells; assay type: functional, cell-based; conditions: Rattus norvegicus, H9c2, Myocardium;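 note: confirmatory concentration-response retest of ultra-high-throughput screening hits for modulation of myocardial damage; cell death induced by hydrogen peroxide oxidative stress; compound pretreatment for 60 min then peroxide exposure for 2 h; potency is for protecting the cells against peroxide damage rather than for killing them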
[1] = molecular target: DNA damage-inducible transcript 3 protein (Mus musculus, UniProt P35639); assay type: functional, Cricetulus griseus
DNA damage-inducible transcript 3 protein, sequence (P35639 whole entry): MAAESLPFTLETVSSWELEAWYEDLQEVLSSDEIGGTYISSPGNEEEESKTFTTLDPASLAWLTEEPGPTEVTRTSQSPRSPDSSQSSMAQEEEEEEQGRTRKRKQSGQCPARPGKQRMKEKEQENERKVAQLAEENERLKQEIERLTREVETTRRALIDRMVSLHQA

X-box-binding protein 1 = molecular target: T1, X-box-binding protein 1 (Homo sapiens, UniProt P17861); assay type: functional, Cricetulus griseus;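 note: confirmatory dose-response counter-screen serving a CHOP assay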
T1 sequence (P17861 whole entry): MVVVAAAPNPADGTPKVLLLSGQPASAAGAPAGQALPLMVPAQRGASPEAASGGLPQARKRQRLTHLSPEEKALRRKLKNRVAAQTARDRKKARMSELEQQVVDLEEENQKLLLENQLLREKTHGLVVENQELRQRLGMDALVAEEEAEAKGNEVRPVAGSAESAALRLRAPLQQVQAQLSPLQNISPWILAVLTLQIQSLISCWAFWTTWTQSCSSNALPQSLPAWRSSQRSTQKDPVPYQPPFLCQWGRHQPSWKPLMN

[2] = cytotoxicity in HEK-293T cells, dose response, cytotoxicity control for TCR NF-kB inhibitor project, luminescence, T-cell screen hits (AID 489026); assay type: functional, cell-based;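 note: cells exposed to compound about 14 hours before the viability readout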
[3] = molecular target: T2, Voltage-gated N-type calcium channel alpha-1B subunit/Amyloid beta A4 precursor protein-binding family A member 1 (Homo sapiens, UniProt Q00975+Q02410); assay type: protein assay
T2 sequence (Q00975 whole entry): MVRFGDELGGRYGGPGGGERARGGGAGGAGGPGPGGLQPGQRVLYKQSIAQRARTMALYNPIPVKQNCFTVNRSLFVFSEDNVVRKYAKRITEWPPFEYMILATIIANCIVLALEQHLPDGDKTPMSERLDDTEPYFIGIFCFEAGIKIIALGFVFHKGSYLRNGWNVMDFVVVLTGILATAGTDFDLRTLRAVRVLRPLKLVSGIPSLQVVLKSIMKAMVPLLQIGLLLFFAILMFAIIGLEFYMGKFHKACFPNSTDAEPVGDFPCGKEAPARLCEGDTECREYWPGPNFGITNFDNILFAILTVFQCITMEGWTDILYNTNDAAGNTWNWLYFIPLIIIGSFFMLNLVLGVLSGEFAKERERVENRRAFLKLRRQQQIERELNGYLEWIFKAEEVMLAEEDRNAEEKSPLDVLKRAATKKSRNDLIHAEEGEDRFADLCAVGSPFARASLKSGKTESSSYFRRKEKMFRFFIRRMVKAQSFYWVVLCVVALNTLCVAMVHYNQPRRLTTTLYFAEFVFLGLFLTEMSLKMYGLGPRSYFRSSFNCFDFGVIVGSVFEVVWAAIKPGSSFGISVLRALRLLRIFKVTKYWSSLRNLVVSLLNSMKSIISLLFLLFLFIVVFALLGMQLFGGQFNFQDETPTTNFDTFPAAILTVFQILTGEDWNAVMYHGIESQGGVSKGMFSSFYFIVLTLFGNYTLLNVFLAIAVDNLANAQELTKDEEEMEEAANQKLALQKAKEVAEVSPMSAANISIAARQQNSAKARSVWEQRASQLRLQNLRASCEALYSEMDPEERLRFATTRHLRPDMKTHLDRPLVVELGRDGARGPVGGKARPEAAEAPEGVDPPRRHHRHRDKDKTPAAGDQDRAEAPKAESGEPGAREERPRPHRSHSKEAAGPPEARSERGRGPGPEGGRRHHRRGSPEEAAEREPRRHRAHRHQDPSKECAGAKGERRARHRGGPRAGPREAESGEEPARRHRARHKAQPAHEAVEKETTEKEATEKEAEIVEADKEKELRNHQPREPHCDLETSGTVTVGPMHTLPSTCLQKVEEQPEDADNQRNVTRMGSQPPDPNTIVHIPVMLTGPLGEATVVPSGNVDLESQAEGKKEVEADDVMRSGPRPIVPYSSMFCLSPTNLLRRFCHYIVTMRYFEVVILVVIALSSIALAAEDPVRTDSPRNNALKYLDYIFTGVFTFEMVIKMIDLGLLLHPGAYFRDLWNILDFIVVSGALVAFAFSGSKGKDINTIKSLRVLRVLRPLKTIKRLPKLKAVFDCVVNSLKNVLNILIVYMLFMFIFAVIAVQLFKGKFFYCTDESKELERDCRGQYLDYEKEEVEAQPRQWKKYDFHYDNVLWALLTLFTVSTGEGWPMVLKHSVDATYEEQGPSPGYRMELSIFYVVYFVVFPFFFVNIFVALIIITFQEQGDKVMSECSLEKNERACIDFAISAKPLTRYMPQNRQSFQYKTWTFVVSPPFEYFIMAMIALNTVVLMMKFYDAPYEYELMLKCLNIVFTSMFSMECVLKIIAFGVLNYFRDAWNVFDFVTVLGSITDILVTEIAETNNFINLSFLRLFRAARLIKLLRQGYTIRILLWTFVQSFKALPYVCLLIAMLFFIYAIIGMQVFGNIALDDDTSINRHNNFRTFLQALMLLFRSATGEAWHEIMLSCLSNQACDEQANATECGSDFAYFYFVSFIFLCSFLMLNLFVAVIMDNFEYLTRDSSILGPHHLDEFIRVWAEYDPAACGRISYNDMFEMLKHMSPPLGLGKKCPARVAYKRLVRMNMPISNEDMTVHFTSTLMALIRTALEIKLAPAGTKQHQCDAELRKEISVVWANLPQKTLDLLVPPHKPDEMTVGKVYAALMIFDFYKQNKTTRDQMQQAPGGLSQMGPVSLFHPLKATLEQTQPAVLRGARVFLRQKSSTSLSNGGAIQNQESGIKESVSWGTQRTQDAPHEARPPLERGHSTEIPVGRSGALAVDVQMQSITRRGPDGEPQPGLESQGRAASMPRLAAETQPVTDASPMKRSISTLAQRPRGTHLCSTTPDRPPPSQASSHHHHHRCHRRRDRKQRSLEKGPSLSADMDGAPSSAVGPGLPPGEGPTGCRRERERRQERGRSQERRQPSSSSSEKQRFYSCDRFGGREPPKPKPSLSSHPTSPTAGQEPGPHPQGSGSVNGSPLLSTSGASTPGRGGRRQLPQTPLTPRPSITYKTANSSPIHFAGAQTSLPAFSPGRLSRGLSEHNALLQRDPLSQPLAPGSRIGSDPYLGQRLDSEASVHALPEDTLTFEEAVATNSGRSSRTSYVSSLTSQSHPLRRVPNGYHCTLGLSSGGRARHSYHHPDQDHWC
T2 sequence (Q02410 whole entry): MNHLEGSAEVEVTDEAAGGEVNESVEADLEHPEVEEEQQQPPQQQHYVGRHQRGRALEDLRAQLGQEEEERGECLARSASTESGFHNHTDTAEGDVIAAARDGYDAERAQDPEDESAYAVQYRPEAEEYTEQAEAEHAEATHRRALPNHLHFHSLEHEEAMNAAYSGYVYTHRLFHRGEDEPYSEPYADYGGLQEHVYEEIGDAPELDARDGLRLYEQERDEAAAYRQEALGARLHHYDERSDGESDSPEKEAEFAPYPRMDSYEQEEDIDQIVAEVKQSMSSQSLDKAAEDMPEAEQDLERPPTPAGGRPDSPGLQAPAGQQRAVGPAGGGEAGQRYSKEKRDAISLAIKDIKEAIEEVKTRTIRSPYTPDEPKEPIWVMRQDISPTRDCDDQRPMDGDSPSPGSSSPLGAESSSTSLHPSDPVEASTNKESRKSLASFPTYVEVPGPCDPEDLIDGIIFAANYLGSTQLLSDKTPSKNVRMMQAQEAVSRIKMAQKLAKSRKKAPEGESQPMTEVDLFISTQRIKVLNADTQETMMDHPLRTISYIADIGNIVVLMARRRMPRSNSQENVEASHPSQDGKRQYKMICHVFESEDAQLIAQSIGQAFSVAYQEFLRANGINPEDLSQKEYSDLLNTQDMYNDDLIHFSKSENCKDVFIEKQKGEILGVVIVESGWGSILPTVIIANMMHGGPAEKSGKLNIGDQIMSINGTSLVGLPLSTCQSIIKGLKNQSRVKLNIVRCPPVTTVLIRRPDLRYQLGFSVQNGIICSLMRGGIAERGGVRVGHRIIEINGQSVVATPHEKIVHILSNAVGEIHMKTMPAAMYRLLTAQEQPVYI

[4] = molecular target: T2, Voltage-gated N-type calcium channel alpha-1B subunit/Amyloid beta A4 precursor protein-binding family A member 1; assay type: protein assay; remark: listed apart in the source
[5] = molecular target: T3, NACHT, LRR and PYD domains-containing protein 1 (Homo sapiens, UniProt Q9C000); assay: NALP1 inhibitors in yeast, dose response, luminescent (AID 488860); assay type: functional
T3 sequence (Q9C000 whole entry): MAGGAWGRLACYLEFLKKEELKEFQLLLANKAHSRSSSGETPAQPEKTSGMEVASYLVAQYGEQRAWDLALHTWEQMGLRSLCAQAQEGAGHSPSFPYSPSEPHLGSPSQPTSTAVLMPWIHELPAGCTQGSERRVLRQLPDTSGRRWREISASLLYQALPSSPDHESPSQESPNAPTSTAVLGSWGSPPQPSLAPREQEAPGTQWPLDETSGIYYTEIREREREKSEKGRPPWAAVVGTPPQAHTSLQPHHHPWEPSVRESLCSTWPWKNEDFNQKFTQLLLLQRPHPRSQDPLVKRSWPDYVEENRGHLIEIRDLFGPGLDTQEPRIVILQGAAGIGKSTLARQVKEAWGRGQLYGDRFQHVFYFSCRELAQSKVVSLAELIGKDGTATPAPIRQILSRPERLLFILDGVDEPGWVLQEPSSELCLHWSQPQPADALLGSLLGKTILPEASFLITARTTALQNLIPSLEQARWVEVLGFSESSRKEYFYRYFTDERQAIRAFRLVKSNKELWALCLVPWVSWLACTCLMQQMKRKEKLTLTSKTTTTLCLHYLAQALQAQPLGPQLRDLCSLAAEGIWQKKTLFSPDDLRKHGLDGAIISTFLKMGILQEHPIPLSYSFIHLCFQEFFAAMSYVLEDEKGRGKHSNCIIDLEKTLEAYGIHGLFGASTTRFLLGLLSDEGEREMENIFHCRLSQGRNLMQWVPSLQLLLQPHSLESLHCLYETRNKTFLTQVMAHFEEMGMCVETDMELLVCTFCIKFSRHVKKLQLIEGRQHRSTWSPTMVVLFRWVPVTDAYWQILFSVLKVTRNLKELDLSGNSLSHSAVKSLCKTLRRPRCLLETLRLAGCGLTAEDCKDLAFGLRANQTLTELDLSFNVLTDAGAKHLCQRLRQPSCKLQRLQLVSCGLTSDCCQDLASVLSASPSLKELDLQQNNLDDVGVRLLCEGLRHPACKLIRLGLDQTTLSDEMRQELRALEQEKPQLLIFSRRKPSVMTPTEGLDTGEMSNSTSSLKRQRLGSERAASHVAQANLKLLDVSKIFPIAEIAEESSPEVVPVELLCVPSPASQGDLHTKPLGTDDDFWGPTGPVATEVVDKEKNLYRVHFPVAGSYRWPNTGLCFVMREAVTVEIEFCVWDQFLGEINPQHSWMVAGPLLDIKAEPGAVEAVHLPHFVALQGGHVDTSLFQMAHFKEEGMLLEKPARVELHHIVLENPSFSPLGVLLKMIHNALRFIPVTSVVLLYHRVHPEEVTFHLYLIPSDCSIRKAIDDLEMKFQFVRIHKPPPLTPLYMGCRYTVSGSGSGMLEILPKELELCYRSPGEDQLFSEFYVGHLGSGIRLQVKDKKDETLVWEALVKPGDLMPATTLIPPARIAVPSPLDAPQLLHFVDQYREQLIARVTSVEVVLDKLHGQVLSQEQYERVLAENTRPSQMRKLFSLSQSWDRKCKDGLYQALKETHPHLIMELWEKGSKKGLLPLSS

Saccharomyces cerevisiae = assay: NALP1 inhibitor project selectivity study, Caspase-1/ASC signal blockade IC50 in S. cerevisiae (AID 488863); assay type: functional, organism-based
[6] = molecular target: Heat shock protein HSP 90-alpha (Homo sapiens, UniProt P07900); assay type: functional, organism-based
[7] = molecular target: T4, Heat shock factor protein 1 (Mus musculus, UniProt P38532); assay: inhibition of MG132-induced HSE-luciferase signal, confirmation, cell-based, NIH3T3, luminescence, dose retest (AID 2382); assay type: functional;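 note: NIH3T3 fibroblasts with HSF1-driven luciferase reporter stressed by proteasome inhibitor MG132; luminescence from HSF1-driven luciferase expression after 8 hours of MG132 stress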
T4 sequence (P38532 whole entry): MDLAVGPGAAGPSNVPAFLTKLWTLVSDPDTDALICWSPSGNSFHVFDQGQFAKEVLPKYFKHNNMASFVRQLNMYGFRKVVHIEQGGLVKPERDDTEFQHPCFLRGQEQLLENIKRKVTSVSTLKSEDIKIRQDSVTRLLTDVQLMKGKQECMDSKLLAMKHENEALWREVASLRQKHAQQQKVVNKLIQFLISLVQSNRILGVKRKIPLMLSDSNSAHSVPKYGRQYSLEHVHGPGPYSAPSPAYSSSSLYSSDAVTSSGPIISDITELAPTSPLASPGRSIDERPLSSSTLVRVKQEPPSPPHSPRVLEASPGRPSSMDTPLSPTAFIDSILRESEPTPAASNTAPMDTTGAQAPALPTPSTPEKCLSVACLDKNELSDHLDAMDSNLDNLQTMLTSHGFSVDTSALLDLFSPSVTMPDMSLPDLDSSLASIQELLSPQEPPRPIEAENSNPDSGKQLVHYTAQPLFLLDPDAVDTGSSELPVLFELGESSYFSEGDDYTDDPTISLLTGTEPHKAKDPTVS

[8] = molecular target: Luciferin 4-monooxygenase (Photinus pyralis, UniProt P08659); assay: firefly luciferase enzyme inhibitors, dose response, biochemical, luminescence (AID 1891)
Luciferin 4-monooxygenase, sequence (P08659 whole entry): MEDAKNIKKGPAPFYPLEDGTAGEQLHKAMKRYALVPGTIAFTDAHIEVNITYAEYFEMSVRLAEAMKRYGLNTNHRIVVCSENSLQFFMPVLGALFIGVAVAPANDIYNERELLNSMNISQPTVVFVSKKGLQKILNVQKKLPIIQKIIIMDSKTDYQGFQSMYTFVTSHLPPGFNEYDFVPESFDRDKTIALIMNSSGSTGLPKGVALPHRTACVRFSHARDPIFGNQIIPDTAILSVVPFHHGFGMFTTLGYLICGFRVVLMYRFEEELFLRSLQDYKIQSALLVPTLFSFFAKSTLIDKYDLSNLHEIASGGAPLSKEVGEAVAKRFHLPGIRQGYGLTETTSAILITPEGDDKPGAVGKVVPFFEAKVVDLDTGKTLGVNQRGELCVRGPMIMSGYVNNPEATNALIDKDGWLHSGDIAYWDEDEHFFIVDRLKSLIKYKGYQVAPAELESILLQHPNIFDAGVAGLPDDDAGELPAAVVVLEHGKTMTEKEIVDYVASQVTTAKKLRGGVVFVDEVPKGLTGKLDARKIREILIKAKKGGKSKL

[9] = Luminescence Cell-Based Dose Confirmation HTS to Identify Inhibitors of Platelet Dense Granule Release. [Related pubchem assays: 1663 (Primary HTS), 1678 (Summary of Project)]; assay type: functional
[10] = molecular target: T5, Short transient receptor potential channel 4 (Mus musculus, UniProt Q9QUQ5); assay: TRPC4 positive allosteric modulators, dose response, cell-based, HEK293 TRPC4/mu-opioid, Fluo-4 calcium, EC20 DAMGO (AID 434941); assay type: functional
T5 sequence (Q9QUQ5 whole entry): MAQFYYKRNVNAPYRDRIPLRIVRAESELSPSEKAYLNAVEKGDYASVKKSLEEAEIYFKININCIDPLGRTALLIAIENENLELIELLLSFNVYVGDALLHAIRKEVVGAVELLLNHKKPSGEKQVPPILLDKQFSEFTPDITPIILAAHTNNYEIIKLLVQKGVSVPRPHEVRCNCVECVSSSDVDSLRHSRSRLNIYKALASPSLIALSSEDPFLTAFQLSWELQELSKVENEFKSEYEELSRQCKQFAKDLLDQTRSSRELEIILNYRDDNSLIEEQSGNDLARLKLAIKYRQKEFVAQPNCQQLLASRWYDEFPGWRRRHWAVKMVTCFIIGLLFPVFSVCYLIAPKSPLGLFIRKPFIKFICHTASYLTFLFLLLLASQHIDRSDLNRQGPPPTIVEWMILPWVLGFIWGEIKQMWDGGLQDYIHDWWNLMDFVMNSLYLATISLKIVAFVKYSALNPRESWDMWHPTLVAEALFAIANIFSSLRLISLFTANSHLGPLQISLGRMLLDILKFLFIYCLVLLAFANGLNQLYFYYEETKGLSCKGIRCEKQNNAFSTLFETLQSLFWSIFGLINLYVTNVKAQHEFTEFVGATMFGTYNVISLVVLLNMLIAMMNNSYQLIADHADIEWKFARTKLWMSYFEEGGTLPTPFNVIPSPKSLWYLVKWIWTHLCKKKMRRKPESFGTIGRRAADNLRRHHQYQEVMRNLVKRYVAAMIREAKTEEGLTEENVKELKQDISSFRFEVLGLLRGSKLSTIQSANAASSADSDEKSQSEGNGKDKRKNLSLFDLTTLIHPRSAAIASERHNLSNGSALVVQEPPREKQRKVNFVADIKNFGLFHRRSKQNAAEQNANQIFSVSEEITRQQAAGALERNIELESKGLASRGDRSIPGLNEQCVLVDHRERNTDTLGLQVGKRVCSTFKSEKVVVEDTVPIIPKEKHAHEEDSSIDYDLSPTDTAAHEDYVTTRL

[11] = molecular target: T6, Corticotropin-releasing factor receptor 2/Corticotropin-releasing factor-binding protein (Homo sapiens, UniProt P24387+Q13324); assay: activators of CRF receptor 2 with binding protein – uHTS hits, confirmation (AID 602473); assay type: functional; conditions: read-out: EC50_Mean
T6 sequence (Q13324 whole entry): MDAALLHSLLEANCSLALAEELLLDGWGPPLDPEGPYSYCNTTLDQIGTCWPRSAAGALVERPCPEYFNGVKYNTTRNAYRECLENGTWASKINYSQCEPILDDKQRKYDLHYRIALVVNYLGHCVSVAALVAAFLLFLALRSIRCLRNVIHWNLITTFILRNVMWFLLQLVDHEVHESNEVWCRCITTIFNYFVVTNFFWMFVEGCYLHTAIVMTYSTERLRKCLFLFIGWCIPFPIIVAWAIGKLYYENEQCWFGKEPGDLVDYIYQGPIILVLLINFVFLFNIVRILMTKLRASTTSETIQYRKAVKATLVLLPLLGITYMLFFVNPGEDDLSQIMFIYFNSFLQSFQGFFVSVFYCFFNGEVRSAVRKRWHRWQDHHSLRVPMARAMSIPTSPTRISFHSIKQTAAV
T6 sequence (P24387 whole entry): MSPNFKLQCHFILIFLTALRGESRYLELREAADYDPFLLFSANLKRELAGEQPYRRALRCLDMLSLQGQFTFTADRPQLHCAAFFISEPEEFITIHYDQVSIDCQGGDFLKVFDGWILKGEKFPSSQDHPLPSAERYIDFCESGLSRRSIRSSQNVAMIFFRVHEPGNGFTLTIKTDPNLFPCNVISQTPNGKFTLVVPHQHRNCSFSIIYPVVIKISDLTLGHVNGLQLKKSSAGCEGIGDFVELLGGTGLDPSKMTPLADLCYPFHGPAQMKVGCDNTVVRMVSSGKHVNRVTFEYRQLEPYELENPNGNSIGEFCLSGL

Hexokinase = molecular target: T7, Hexokinase (Trypanosoma brucei, UniProt Q38C41); assay: Confirmation assay for inhibitors of Trypanosoma brucei hexokinase 1-Analogue-first series. [Related pubchem assays (depositor defined):AID1430, AID1632, AID2516, AID2560, AID2579, AID2600, AID449725, AID492951]; assay type: functional
T7 sequence (Q38C41 whole entry): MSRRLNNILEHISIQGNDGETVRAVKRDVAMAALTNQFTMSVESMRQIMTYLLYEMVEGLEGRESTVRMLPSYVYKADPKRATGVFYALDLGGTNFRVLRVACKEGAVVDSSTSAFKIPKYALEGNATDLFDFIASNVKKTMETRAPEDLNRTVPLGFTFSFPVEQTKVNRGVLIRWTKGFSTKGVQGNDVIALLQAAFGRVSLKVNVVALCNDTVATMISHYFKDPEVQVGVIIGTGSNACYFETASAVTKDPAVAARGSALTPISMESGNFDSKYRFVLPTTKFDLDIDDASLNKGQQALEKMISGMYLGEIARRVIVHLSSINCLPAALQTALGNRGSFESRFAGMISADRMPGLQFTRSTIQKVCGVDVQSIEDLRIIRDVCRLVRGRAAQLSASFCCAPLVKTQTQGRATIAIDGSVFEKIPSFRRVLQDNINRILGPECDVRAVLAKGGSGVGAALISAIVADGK

[12] = molecular target: T5, Short transient receptor potential channel 4; assay: mouse TRPC4 channel activators, dose response, cell-based, HEK293 TRPC4/mu-opioid, Fluo-4 calcium (AID 434937); assay type: functional

Structure (SMILES): CCOC(=O)Cc1csc(NC(=O)NC2(C(F)(F)F)Oc3ccc(Cl)cc3O2)n1 (stereo not given)
- IC50 (H9c2): > 79 µM (inactive)
- Absolute IC50 (CHOP) [1]: 10 µM
- Absolute IC50 (XBP1) (X-box-binding protein 1): 10 µM

Structure (SMILES): COC(=O)c1ccccc1NC(=O)CSc1nc(-c2ccco2)cc(C(F)(F)F)n1
- IC50 [2]: > 80 µM (inactive)

Structure (SMILES): COC(=O)/C=C\C(=O)Nc1cccc([N+](=O)[O-])c1
- IC50 [3]: 2.1 µM (active)
- IC50 [4]: 10.1 µM (active)
- IC50 [5]: 10.9 µM (active)
- IC50 (Saccharomyces cerevisiae): 7.1 µM (active)
- Absolute IC50 (CHOP) [1]: 10 µM
- AC50 [6]: 3.67 µM (active)
- EC50 [7]: > 195 µM (not active)
- EC50 [8]: > 112 µM (not active)
- EC50 [9]: 9.34 µM (active)

- EC50 [10]: 0.75 µM (active)
Structure (SMILES): CC(C)c1c(O)nc(SCCN(C)C)nc1O

- EC50 [10]: 0.13 µM (active)
- EC50 [11]: 2.38 µM (active)
Structure (SMILES): O=C(O)CCNc1nc(-c2ccccc2)c2cc(Br)ccc2n1

Structure (SMILES): O=C(Cn1sc2ccccc2c1=O)Nc1cccc(I)c1
- IC50 (Hexokinase): > 25 µM (inactive)

Structure (SMILES): O=c1c2cc(Br)ccc2[s+]([O-])n1-c1ccccc1 (stereo not given)
- IC50 (Hexokinase): > 25 µM (inactive)

- EC50 [12]: 5.96 µM (active)
- EC50 [10]: 0.38 µM (active)
Structure (SMILES): COc1ccc(/N=C(\C)C2=C(O)C(=O)N(CCO)C2c2ccc(Br)cc2)cc1 (stereo not given)
